The source of these data is paper PMC11897524 (Frontiers in Pharmacology, 2025).

SMILES strings stand for the structures. Some results are limits rather than exact numbers.

Data set [1] can be described thus: Hematology parameters of treated mice. It is filed as in vivo, BALB/c nude mice. To be noted: BST-4-treated vs vehicle groups. The procedure:
To further investigate the in vivo effects of BST-4, 6–8 weeks male BALB/c nude mice were obtained by Changzhou Cavens Experimental Animal Co., Ltd. (Changzhou, China). The mice were acclimatized to the laboratory environment for a week before the experiment. The housing conditions were maintained at a temperature of 22°C ± 2°C, a relative humidity of 50%–60%, and a 12-h light/dark cycle. 0.1 mL of CAKI-2cell suspension (1 × 10⁶ cells) was subcutaneously injected into the right flank of each mouse. […] The vehicle group was injected with a vehicle solution consisting of 5% DMSO and PBS. The tumor volume of mice was measured every 2 days and calculated according to the formula: (c × c × d)/2, where c and d represent the minimum diameter and maximum diameter, respectively. All animal experiments were performed and approved by the Ethics Committee of China Pharmaceutical University.
FIGURE 12 Hematology parameters of mice in the BST-4-treated groups and vehicle groups. (A) White blood cell (WBC); (B) Red blood cells (RBC); (C) Platelets (PLT); (D) Hemoglobin (HGB). Data are presented as the mean ± SD, n = 5.

Another data set has as its target BRDT (Homo sapiens, UniProt Q58F21). Briefly: Binding affinity to BET and STAT family members.
The test system of another data set is 769-P cells. Briefly: MTT cytotoxicity assay. To be noted: Homo sapiens, cell growth, 48 h treatment, read-out: IC50 (μM) ± SD 769-P. It is filed as cell-based. On the procedure:
(§1) Human normal renal cortical proximal tubular epithelial cell line HK-2 and human renal carcinoma cell lines CAKI-2, SLR-23, 769-P, A704 and RCC4 were previously purchased from the American Type Culture Collection (ATCC, Manassas, VA, USA) or the European Collection of Cell Cultures (ECACC, Salisbury, United Kingdom). HK2, A704, and RCC4 cells were maintained in high glucose DMEM supplemented with 10% FBS and 1% penicillin/streptomycin. SLR-23 and […] cells were cultured in RPMI-1640 medium with 10% FBS and 1% penicillin/streptomycin. CAKI-2 cells were maintained in McCoy’s 5A medium supplemented with 10% FBS and 1% penicillin/streptomycin. All the cell lines were cultured at 37°C in a humidified atmosphere of 5% CO2 and 95% air.
(§2) The effect of hit compounds on cytotoxicity was determined as previously reported ([Ding et al., 2020]). In brief, cells treated with the tested compounds were added with MTT reagent to form formazan crystals, and then the optical density (OD) values at 570 nm were determined after the crystals were dissolved in DMSO. […] Next, the values of IC50 of the selected compounds against more RCC cell lines were determined. The 5 × 10^3 cells in 100 μL culture medium were injected into each well of a 96-well plate and cultured overnight. Add different concentrations of compounds and incubate for 48 h. Then 100 μL of MTT (0.5 mg/mL) solution was added to the 96-well plate and maintained at 37°C for 4 h. Finally, 200 μL of DMSO was added and shaken for 10 min. The OD values at 570 nm were determined by a Synergy 4 microplate reader.
Background: Tetrazolium assays rely on reduction of a dye to a coloured formazan, in cell work by metabolically active cells.

Data set [2] concerns HK-2 normal renal cortical proximal tubular epithelial cells. Description: MTT cytotoxicity assay. It is filed as cell-based. To be noted: Homo sapiens, Epithelial cell, normal cell line, 48 h treatment, read-out: IC50 (μM) ± SD HK-2. On the procedure: as §1, §2
For another data set, the system named is SLR-23 cells. Briefly: MTT cytotoxicity assay. To be noted: Homo sapiens, cell growth, 48 h treatment, read-out: IC50 (μM) ± SD SLR-23. It is filed as cell-based. On the procedure: as §1, §2
The subject of the next data set is A704 cells. Description: MTT cytotoxicity assay. It is filed as cell-based. Conditions: Homo sapiens, cell growth, 48 h treatment, read-out: IC50 (μM) ± SD A704. On the procedure:
as §1, §2

The next data set concerns RCC4 cells. Description: MTT cytotoxicity assay. Format: cell-based. Conditions: Homo sapiens, cell growth, 48 h treatment, read-out: IC50 (μM) ± SD RCC4. The procedure:
as §1, §2

The term Kd denotes the concentration at which binding is half-saturated. A lower Kd goes with a tighter complex. For orientation: IC50 means the concentration that gives 50% inhibition. Take `CCS(=O)(=O)Cc1cnc(Oc2c(F)cc(F)cc2OCCCCOc2ccc(/C=C/c3cc(OC)cc(OC)c3)cc2)c(-c2cc(C)c3c(=O)[nH]ccn23)c1` [BST-4]: the “levels of representative hematological markers (WBC, RBC, PLT, HGB) vs vehicle” value in data set [1] is “no significant differences”. In addition, the Kd at BRDT is > 10000 nM. The IC50 in the data set on 769-P cells is 1.68 ± 0.32 µM; in data set [2] it was > 10 µM; in the data set on SLR-23 cells, 1.52 ± 0.43 µM; in the data set on A704 cells, 1.07 ± 0.18 µM; in the data set on RCC4 cells it was 2.19 ± 0.64 µM.
